pIC50: −log10 of the molar value.

For 33 compounds, IC50 results are on record in patent US9458106B2, “Phenyl-pyridine/pyrazine amides for the treatment of cancer” (Hoffmann-La Roche Inc., priority 2013, dated 2016).

The target of one experiment is T1, CDK8/Cyclin C (Homo sapiens, UniProt P49336).
T1 construct: purchased Invitrogen PV4402
Description: CDK8/Cyclin C LANCE TR-FRET kinase assay. In kind it is biochemical. The conditions noted are these: CDK8/Cyclin C 10 nM, ATP 24 μM, Ulight-GS peptide 80 nM, 37° C. 30 mins. The source says:
CDK8/Cyclin C LANCE TR-FRET Kinase Assay
The biological activity of the compounds of the invention can be determined using the assay described below.
CDK8/Cyclin C protein was obtained from Invitrogen, cat #PV4402. ULight-Glycogen Synthase (Ulight-GS) peptide with sequence PASVPPSPSLSRHSSPHQ(pS)ED, and Europium-anti-phospho Glycogen Synthase (Ser641) [Eu-anti-P-GS (Ser641)] were obtained from Perkin Elmer, cat #TRF0131-M and cat #TRF0220. Adenosine-5′-triphosphate (ATP) was obtained from Invitrogen, cat #PV3227.
A mixture of (1) a compound of formula I, (2) substrate [Ulight-GS peptide (80 nM) and ATP (24 μM)], and (3) CDK8/Cyclin C (10 nM) in reaction buffer (50 mM Hepes, pH7.0, 10 mM MgCl2, 1 mM EGTA, 0.2 mg/mL BSA, 0.8 mM DTT) were incubated at 37° C. for 30 mins. Then, [Eu-anti-P-GS (Ser641)] (1.5 nM) was added. Following incubation at RT for 30 mins, the TR-FRET signals were detected using Envision reader (Ex 340 nm, Em 615 nm and 665 nm) from Perkin Elmer. The reactivity in percentage of inhibition or dose response was analyzed with GraphPad Prism 5 (GraphPad Software).
Background: TR-FRET usually uses a lanthanide donor and a delayed reading to cut background.

Experiment [1] relates to HCT116 (colorectal cancer). As to the kind of experiment: In vitro cell proliferation assay (CCK-8), HCT116. Type of experiment: cell-based. The settings on record: Homo sapiens, HCT-116, HCT116 cells, 72 hours. As for the experimental part: (§1) In Vitro Cell Proliferation Assay
(§2) Cells were seeded on 96-well plates at 5×10^3 cells per well and precultured for 24 hours. The cells were treated with serial diluted compounds and cultured for 72 hours. Then all media was discarded and after that, 100 μL 1:10 (v/v) Cell Counting Kit-8 (CCK-8)-culture media solution was added to the wells. Plate was developed for 2 hrs in an incubator, and the absorbance was measured at 450 nm wavelengths with SpectraMAX190 (MDS, Sunnyvale, Calif.). The inhibition rate (IR) of the tested compounds was determined with following formula: IR (%)=(ODDMSO−ODcompound)/ODDMSO×100%. The concentration corresponding to 50% IR (IC50) was determined with plot curve of IR against tested compound concentrations with SoftMax Pro.

The next experiment deals with AGS (gastric cancer). As to the kind of experiment: In vitro cell proliferation assay (CCK-8), AGS. Type of experiment: cell-based. The settings on record: Homo sapiens, AGS cells, 72 hours. As for the experimental part: as §1, §2
Experiment [2] concerns DLD-1 (colorectal cancer). As to the kind of experiment: In vitro cell proliferation assay (CCK-8), DLD-1. The settings on record: Homo sapiens, DLD-1 cells, 72 hours. Type of experiment: cell-based. The protocol: as §1, §2

T1 sequence (P49336 whole entry): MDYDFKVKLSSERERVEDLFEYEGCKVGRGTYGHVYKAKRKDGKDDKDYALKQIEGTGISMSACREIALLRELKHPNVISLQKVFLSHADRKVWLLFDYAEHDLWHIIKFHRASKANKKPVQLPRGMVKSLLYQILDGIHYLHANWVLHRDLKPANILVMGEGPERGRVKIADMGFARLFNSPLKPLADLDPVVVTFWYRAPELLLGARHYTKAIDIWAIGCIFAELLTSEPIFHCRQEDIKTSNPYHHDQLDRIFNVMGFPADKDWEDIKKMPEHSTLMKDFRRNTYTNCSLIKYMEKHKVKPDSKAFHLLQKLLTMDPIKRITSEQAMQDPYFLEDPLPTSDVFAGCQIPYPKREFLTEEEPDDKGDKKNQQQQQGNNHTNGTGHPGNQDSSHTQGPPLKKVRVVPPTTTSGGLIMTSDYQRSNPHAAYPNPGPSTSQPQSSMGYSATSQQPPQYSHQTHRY
T1 sequence (P24863 whole entry partner): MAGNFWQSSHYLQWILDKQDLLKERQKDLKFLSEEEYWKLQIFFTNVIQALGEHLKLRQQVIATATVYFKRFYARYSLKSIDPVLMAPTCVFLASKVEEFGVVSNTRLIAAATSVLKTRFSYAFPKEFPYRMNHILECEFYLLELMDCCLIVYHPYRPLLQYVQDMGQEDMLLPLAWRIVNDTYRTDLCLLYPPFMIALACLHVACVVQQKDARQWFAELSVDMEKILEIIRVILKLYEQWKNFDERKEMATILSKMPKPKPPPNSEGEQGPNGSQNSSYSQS

One may read the pIC50 as the IC50 on a negative log10 scale, so that one unit is a factor of ten. Lower therefore signals a large IC50. The term IC50 denotes the concentration at which inhibition is half-maximal. Lower therefore signals higher potency. Consider `NC(=O)[C@H](Nc1cncc(-c2cc(Cl)ccc2F)c1)c1ccccc1` [Example 1, (R)-2-[5-(5-Chloro-2-fluoro-phenyl)-pyridin-3-ylamino]-2-phenyl-cetamide], for which the pIC50 at CDK8/Cyclin C is 7.04; in experiment [1] it was 5.58. The compound also yielded an IC50 in the experiment with AGS (gastric cancer) of 2.66 µM.

At CDK8/Cyclin C, `NC(=O)C(Nc1cncc(-c2ccc(O)c(Cl)c2)c1)c1ccccc1` (centres unmarked) [Example 2, 2-[5-(3-Chloro-4-hydroxy-phenyl)-pyridin-3-ylamino]-2-phenyl-acetamide] showed a pIC50 of 6.98.

`NC(=O)[C@H](Nc1cncc(-c2ccc(O)c(Cl)c2)c1)c1ccccc1` [Example 3, (R)-2-[5-(3-Chloro-4-hydroxy-phenyl)-pyridin-3-ylamino]-2-phenyl-acetamide]: the results for the pIC50 (against CDK8/Cyclin C; in experiment [1]) were 8.15 and 6.13, respectively. The IC50 in experiment [2] was found to be 0.604 µM; with AGS (gastric cancer), 0.517 µM.

On CDK8/Cyclin C, `NC(=O)[C@@H](Nc1cncc(-c2ccc(O)c(Cl)c2)c1)c1ccccc1` [Example 4, (S)-2-[5-(3-Chloro-4-hydroxy-phenyl)-pyridin-3-ylamino]-2-phenyl-acetamide] had a pIC50 of 6.33.

Compound `Cc1ccncc1-c1cncc(NC(C(N)=O)c2ccccc2)c1` (centres unmarked) [Example 5, 2-(4′-Methyl-[3,3′]bipyridinyl-5-ylamino)-2-phenyl-acetamide] had a pIC50 against CDK8/Cyclin C of 6.88.

As for `COc1cc(-c2cncc(NC(C(N)=O)c3ccccc3)c2)ccn1` (centres unmarked) [Example 6, 2-(2′-Methoxy-[3,4′]bipyridinyl-5-ylamino)-2-phenyl-acetamide], the pIC50 against CDK8/Cyclin C was 5.66.

Compound `CCOc1ccc(F)c(-c2cncc(NC(C(N)=O)c3ccccc3)c2)c1` (centres unmarked) [Example 7, 2-[5-(5-Ethoxy-2-fluoro-phenyl)-pyridin-3-ylamino]-2-phenyl-acetamide] showed a pIC50 against CDK8/Cyclin C of 5.96.

Regarding `NC(=O)C(Nc1cncc(-c2ccc(F)c(Cl)c2)c1)c1ccccc1` (centres unmarked) [Example 8, 2-[5-(3-Chloro-4-fluoro-phenyl)-pyridin-3-ylamino]-2-phenyl-acetamide], the pIC50 against CDK8/Cyclin C was 5.63.

In turn, `COc1cc(-c2cncc(NC(C(N)=O)c3ccccc3)c2)c(F)cn1` (centres unmarked) [Example 9, 2-(5′-Fluoro-2′-methoxy-[3,4′]bipyridinyl-5-ylamino)-2-phenyl-acetamide] had a pIC50 against CDK8/Cyclin C of 5.94.

The compound `NC(=O)C(Nc1cncc(-c2cncc(Cl)c2)c1)c1ccccc1` (centres unmarked) [Example 10, 2-(5′-Chloro-[3,3′]bipyridinyl-5-ylamino)-2-phenyl-acetamide] gave a pIC50 on CDK8/Cyclin C of 5.86.

`Cc1ccccc1C(Nc1cncc(-c2cc(Cl)ccc2F)c1)C(N)=O` (centres unmarked) [Example 11, 2-[5-(5-Chloro-2-fluoro-phenyl)-pyridin-3-ylamino]-2-o-tolyl-acetamide]: the pIC50 against CDK8/Cyclin C is 7.44.

Turning to `NC(=O)C(Nc1cncc(-c2cc(Cl)ccc2F)c1)c1ccccc1F` (centres unmarked) [Example 12, 2-[5-(5-Chloro-2-fluoro-phenyl)-pyridin-3-ylamino]-2-(2-fluoro-phenyl)-acetamide], the pIC50 on CDK8/Cyclin C was 7.41.

`Cc1cccc(C(Nc2cncc(-c3cc(Cl)ccc3F)c2)C(N)=O)c1` (centres unmarked) [Example 13, 2-[5-(5-Chloro-2-fluoro-phenyl)-pyridin-3-ylamino]-2-m-tolyl-acetamide] had a pIC50 at CDK8/Cyclin C of 6.25.

As to `NC(=O)C(Nc1cncc(-c2cc(Cl)ccc2F)c1)c1ccccc1Cl` (centres unmarked) [Example 14, 2-[5-(5-Chloro-2-fluoro-phenyl)-pyridin-3-ylamino]-2-(2-chloro-phenyl)-acetamide], the pIC50 against CDK8/Cyclin C was 7.96.

Regarding `NC(=O)C(Nc1cncc(-c2cc(Cl)ccc2F)c1)c1cc(F)ccc1F` (centres unmarked) [Example 15, 2-[5-(5-Chloro-2-fluoro-phenyl)-pyridin-3-ylamino]-2-(2,5-difluoro-phenyl)-acetamide], at CDK8/Cyclin C, the pIC50 was 6.91.

With `COc1ccc(F)c(-c2cncc(NC(C(N)=O)c3ccccc3)c2)c1` (centres unmarked) [Example 16, 2-[5-(2-Fluoro-5-methoxy-phenyl)-pyridin-3-ylamino]-2-phenyl-acetamide], the pIC50 at CDK8/Cyclin C is 6.58.

On to `NC(=O)C(Nc1cncc(-c2cc(Cl)ccc2F)c1)c1ccsc1` (centres unmarked) [Example 17, 2-[5-(5-Chloro-2-fluoro-phenyl)-pyridin-3-ylamino]-2-thiophen-3-yl-acetamide], for which the pIC50 against CDK8/Cyclin C was 7.27.

`Cc1ccc(C(Nc2cncc(-c3cc(Cl)ccc3F)c2)C(N)=O)cc1` (centres unmarked) [Example 18, 2-[5-(5-Chloro-2-fluoro-phenyl)-pyridin-3-ylamino]-2-p-tolyl-acetamide]: on CDK8/Cyclin C, the pIC50 was 6.62.

As for `NC(=O)C(Nc1cncc(-c2cc(Cl)ccc2F)c1)c1cccc(Cl)c1` (centres unmarked) [Example 19, 2-[5-(5-Chloro-2-fluoro-phenyl)-pyridin-3-ylamino]-2-(3-chloro-phenyl)-acetamide], the pIC50 against CDK8/Cyclin C is 6.36.

`NC(=O)C(Nc1cncc(-c2cc(Cl)ccc2F)c1)c1ccc(Cl)cc1` (centres unmarked) [Example 20, 2-[5-(5-Chloro-2-fluoro-phenyl)-pyridin-3-ylamino]-2-(4-chloro-phenyl)-acetamide] showed a negative-log IC50 (pIC50) against CDK8/Cyclin C of 5.97.

For `COc1cccc(C(Nc2cncc(-c3cc(Cl)ccc3F)c2)C(N)=O)c1` (centres unmarked) [Example 21, 2-[5-(5-Chloro-2-fluoro-phenyl)-pyridin-3-ylamino]-2-(3-methoxy-phenyl)-acetamide], the pIC50 against CDK8/Cyclin C was 7.00.

Take `CS(=O)(=O)NC(=O)C(Nc1cncc(-c2cc(Cl)ccc2F)c1)c1ccccc1` (centres unmarked) [Example 22, N-{2-[5-(5-Chloro-2-fluoro-phenyl)-pyridin-3-ylamino]-2-phenyl-acetyl}-methanesulfonamide]: the pIC50 against CDK8/Cyclin C was 5.11.

As for `NC(=O)C(Nc1cncc(-c2cc(Cl)c(F)cc2F)c1)c1ccccc1` (centres unmarked) [Example 23, 2-[5-(5-Chloro-2,4-difluoro-phenyl)-pyridin-3-ylamino]-2-phenyl-acetamide], on CDK8/Cyclin C, the pIC50 was 6.14.

Take `NC(=O)C(Nc1cncc(-c2cc(Cl)ccc2F)c1)c1ccccn1` (centres unmarked) [Example 24, 2-[5-(5-Chloro-2-fluoro-phenyl)-pyridin-3-ylamino]-2-pyridin-2-yl-acetamide]: the pIC50 on CDK8/Cyclin C was 5.68.

At CDK8/Cyclin C, `NC(=O)C(Nc1cncc(-c2cc(Cl)ccc2F)c1)c1cccs1` (centres unmarked) [Example 25, 2-[5-(5-Chloro-2-fluoro-phenyl)-pyridin-3-ylamino]-2-thiophen-2-yl-acetamide] gave a pIC50 of 7.07.

Regarding `NC(=O)C(Nc1cncc(-c2ccc(O)c(Cl)c2)n1)c1ccccc1` (centres unmarked) [Example 26, 2-[6-(3-Chloro-4-hydroxy-phenyl)-pyrazin-2-ylamino]-2-phenyl-acetamide], the pIC50 at CDK8/Cyclin C is 8.32.

As to `NC(=O)[C@H](Nc1cncc(-c2ccc(O)c(Cl)c2)n1)c1ccccc1` [Example 27, (R)-2-[6-(3-Chloro-4-hydroxy-phenyl)-pyrazin-2-ylamino]-2-phenyl-acetamide], the pIC50 against CDK8/Cyclin C is 8.55.

At CDK8/Cyclin C, `NC(=O)[C@@H](Nc1cncc(-c2ccc(O)c(Cl)c2)n1)c1ccccc1` [Example 28, (S)-2-[6-(3-Chloro-4-hydroxy-phenyl)-pyrazin-2-ylamino]-2-phenyl-acetamide] showed a pIC50 of 7.48.

Take `NC(=O)C(Nc1cncc(-c2cc(Cl)ccc2F)n1)c1ccccc1` (centres unmarked) [Example 29, 2-[6-(5-Chloro-2-fluoro-phenyl)-pyrazin-2-ylamino]-2-phenyl-acetamide]: the pIC50 on CDK8/Cyclin C is 6.91.

As to `NC(=O)[C@H](Nc1cncc(-c2cc(Cl)ccc2F)n1)c1ccccc1` [Example 30, (R)-2-[6-(5-Chloro-2-fluoro-phenyl)-pyrazin-2-ylamino]-2-phenyl-aceamide], the pIC50 on CDK8/Cyclin C was 7.26.

For `NC(=O)[C@@H](Nc1cncc(-c2cc(Cl)ccc2F)n1)c1ccccc1` [Example 31, (S)-2-[6-(5-Chloro-2-fluoro-phenyl)-pyrazin-2-ylamino]-2-phenyl-acetamide], the pIC50 against CDK8/Cyclin C is 6.08.

At CDK8/Cyclin C, `COc1cccc(-c2cncc(NC(C(N)=O)c3ccccc3)n2)c1` (centres unmarked) [Example 32, 2-[6-(3-Methoxy-phenyl)-pyrazin-2-ylamino]-2-phenyl-acetamide] gave a pIC50 of 6.37.

Take `COc1cccc(-c2cncc(N[C@@H](C(N)=O)c3ccccc3)n2)c1` [Example 33, (R)-2-[6-(3-Methoxy-phenyl)-pyrazin-2-ylamino]-2-phenyl-acetamide]: the negative-log IC50 (pIC50) on CDK8/Cyclin C is 6.25.
